Laboratory results taken from patent US9790193B2, “Semicarbazide-sensitive amine oxidase inhibitors for use as analgesics in traumatic neuropathy and neurogenic inflammation” (PÉCSI TUDOMÁNYEGYETEM, priority 2014, dated 2017).
Entries after “also recorded” stand apart in the source; their conditions may differ.

What was measured:
[1] = system: formalin-induced acute nocifensive behaviours and hyperalgesia; assay: Formalin-induced acute nocifensive behaviour and hyperalgesia in mice; assay type: in vivo, male C57Bl/6 mice; conditions: mouse
Description: (§1) The solutions were prepared freshly on the day of the experiment with sterile saline. SZV-1287 (prepared according to WO 2010/029379 A1) dissolved in saline and the solution was clear. The SZV-1911 (prepared according to WO2006/094201 and WO2005/014530) solution was prepared with Tween 80 and ethanol, stirred properly with a vortex, heated moderately to 42° C. and sonicated, but it was still opalescent. The i.p. administered volume was 0.2 ml/100 g body weight from 10 mg/ml in rats solution and 0.1 m/10 g body weight from 2 mg/ml solution to achieve the 20 mg/kg doses. The solvent of SZV-1911 was given to the vehicle-treated animals in the same volume.
Sciatic nerve ligation-induced traumatic mononeuropathy experiments were performed on male Wistar rats (250-300 g), and on male C57Bl/6 mice as well as resiniferatoxin- or formalin-induced hyperalgesia. The original breeding pairs of the animals were purchased from Charles River Ltd. All the animals were kept in the Animal Facility of the Department of Pharmacology and Pharmacotherapy at the University of Pécs at 24-25° C. provided with standard chow and water ad libitum. […]
The noxious heat threshold of the paw, defined as the lowest temperature evoking nocifensive behaviour—was measured with an increasing-temperature hot plate (IITC Life Science, Woodland Hills, Calif., USA). […]
The total duration of paw licking and lifting were expressed to representing the nociceptive behaviour. […] Mechanical hyperalgesia values were determined as % by comparing the nociceptive thresholds measured at 2 and 4 hours after the application to the initial threshold values. Results are expressed as means±s.e.m. of the thermo- and mechanonociceptive threshold changes of n=11-11 animals/groups. Data were analysed with One-way ANOVA following Bonferroni's post-test in comparison to determine differences between the pre- and post-injection values of the respective groups.

RTX-induced hyperalgesia = assay: Resiniferatoxin-evoked thermal and mechanical hyperalgesia in mice; assay type: in vivo, male C57Bl/6 mice; conditions: mouse; for drop of mechanonociceptive threshold after RTX at 2 hours: solvent group 47.1±6%; for acute neurogenic inflammatory heat allodynia: only significant in case of SZV-1287 after RTX
Description: as §1
(§2) Sciatic nerve ligation-induced traumatic mononeuropathy experiments were performed on male Wistar rats (250-300 g), and on male C57Bl/6 mice as well as resiniferatoxin- or formalin-induced hyperalgesia. The original breeding pairs of the animals were purchased from Charles River Ltd. All the animals were kept in the Animal Facility of the Department of Pharmacology and Pharmacotherapy at the University of Pécs at 24-25° C. provided with standard chow and water ad libitum.
(§3) The mechanical touch sensitivity thresholds of the plantar surface of the paws was determined by aesthesiometry (Ugo Basile Dynamic Plantar Aesthesiometer 37400; Comerio, Italy). This is an electronic von Frey device, in which the animals moved about freely in one of the compartments of the enclosure positioned on the metal mesh surface. Following acclimation after cessation of exploratory behaviour, the touch stimulator unit was placed under the animal's paw, using the adjustable angled-mirror to position the filament below the target area of the plantar surface. Then an electrodynamic actuator of proprietary design lifted a straight metal filament, which touched the plantar surface and began to exert an increasing upward force at a preset rate of application until a stop signal (removal of the paw) was attained. The paw withdrawal threshold was obtained in grams. Hyperalgesia or allodynia (decrease of the withdrawal thresholds) was expressed as percentage by comparing the data of each individual animal to the averaged three initial control thresholds.
Resiniferatoxin (RTX) is a potent agonist of Transient Receptor Potential Vanilloid 1 (TRPV1) receptors, which are mainly expressed on capsicin-sensitive sensory nerve ending. Intraplantarly (i.pl.) injection of RTX (0.03 μg/ml; 20 μl) into one of the hindpaws induced an acute inflammation and a robust drop of heat and mechanical thresholds.
The noxious heat threshold of the paw, defined as the lowest temperature evoking nocifensive behaviour—was measured with an increasing-temperature hot plate (IITC Life Science, Woodland Hills, Calif., USA). After habituation, mice were placed onto the plate, which was then heated up from room temperature at a rate of 12° C./min until the animals showing nocifensive behaviour (licking, lifting or shaking one of the hindpaws). The corresponding plate temperature was considered as the noxious heat threshold.
Lines represent thermal and mechanical hyperalgesia before drug injection and 5, 10, 15, 20 min as well as 2, 4, 6, 24 hours, respectively after compound/solvent administration. Results are expressed as means±s.e.m. of the thermo- and mechanonociceptive threshold changes of n=7-8 per groups. Data were analysed with Two-way ANOVA following Bonferroni's post-test in comparison to determine differences between the pre- and post-injection values of the respective groups **p<0.01, *** p<0.001 SZV-1287 vs. saline and ### p<0.001 SZV-1911 vs. saline.

[2] = system: sciatic nerve ligation-induced mechanical hyperalgesia; assay: Sciatic nerve ligation-induced traumatic mononeuropathy, mechanical hyperalgesia in mice (dynamic plantar aesthesiometry); assay type: in vivo, male C57Bl/6 mice; conditions: mouse, injured paw, single dose 20 mg/kg i.p., 15 minutes after administration, vs postoperative control values
Description: as §1
Sciatic nerve ligation-induced traumatic mononeuropathy experiments were performed on male Wistar rats (250-300 g), and on male C57Bl/6 mice as well as resiniferatoxin- or formalin-induced hyperalgesia. […]
On the 3rd and on the 7th day following the nerve ligation, the mechano-nociceptive thresholds were determined directly before and 15 min after i.p. drug administration to observe the difference between pre-injection and post-injection thresholds in mice. We determined the developing cold allodynia following the sciatic nerve ligation at Days 3 and 7. […]
The mechanical touch sensitivity thresholds of the plantar surface of the paws was determined by aesthesiometry (Ugo Basile Dynamic Plantar Aesthesiometer 37400; Comerio, Italy). […]

[3] = system: sciatic nerve ligation-induced cold allodynia; assay: Sciatic nerve ligation-induced cold allodynia in mice (paw withdrawal latency from 0° C. water); assay type: in vivo, male C57Bl/6 mice; conditions: mouse, injured paw, days 3 and 7 after nerve ligation
Description: (§4) On the 3rd and on the 7th day following the nerve ligation, the mechano-nociceptive thresholds were determined directly before and 15 min after i.p. drug administration to observe the difference between pre-injection and post-injection thresholds in mice. We determined the developing cold allodynia following the sciatic nerve ligation at Days 3 and 7. In rats we examined the developing mechanical allodynia just 7 days after the sciatic nerve ligation on the same way like in mice. Only animals with a minimum of 25% hyperalgesia/allodynia were included in the study (Seltzer et al., Pain., 1990, 43(2):205-18; Pintér et al., Naunyn Schmiedebergs Arch Pharmacol., 2002, 366(2):142-50.).
Mice were anaesthesized with a combination of ketamine and xylazine (100 mg/kg and 5 mg/kg i.p. respectively), but in rats Na-pentobarbital (40 mg/kg i.p) were used. […]
A noxious cold stimulus was applied by immersing one of the murine hindpaws in icy water, remaining the temperature steady at 0° C. Cold perception was assessed as the time taken by the animal to pulling out its paw from the cold water, the cut-off time was 180 seconds. […]
The paw withdrawal latency values were determined as % by comparing the latencies measured on day 3 and 7 after the operation to the mean initial latency values. […] Results are expressed as means±s.e.m of the withdrawal behaviour latency changes of n=6-6 mice per groups. […]

[4] = system: sciatic nerve ligation-induced mechanical allodynia; assay: Sciatic nerve ligation-induced traumatic mononeuropathy, mechanical allodynia in rats (dynamic plantar aesthesiometry); assay type: in vivo, male Wistar rats; conditions: for change of the mechanonociceptive thresholds, contralateral side of the operated rats / inhibitory effect on mechanical allodynia / mechanical allodynia (decrease of withdrawal threshold vs initial control) after drug injection: rat; for change of the mechanonociceptive thresholds, contralateral side of the operated rats: contralateral paw; for change of the mechanonociceptive thresholds, contralateral side of the operated rats / mechanical allodynia (decrease of withdrawal threshold vs initial control) after drug injection / change of the mechanonociceptive thresholds, sham-operated group: 20 mg/kg i.p.; for inhibitory effect on mechanical allodynia / mechanical allodynia (decrease of withdrawal threshold vs initial control) after drug injection: operated limb; for inhibitory effect on mechanical allodynia: day 7, 20 mg/kg i.p., post- vs pre-injection; for mechanical allodynia (decrease of withdrawal threshold vs initial control) after drug injection: day 7 after nerve ligation, 15 min after administration, mean±s.e.m.; for change of the mechanonociceptive thresholds, sham-operated group: sham-operated rats
Description: as §1, §2
Before all experiments one conditioning and three reliable control threshold measurements were performed on three consecutive days. All operations were performed by the same operator, who was blinded to the animal group assignments and the treatment allocation (FIG. 1A for the rat, B for the mouse experimental paradigm).
as §4
Mice were anaesthesized with a combination of ketamine and xylazine (100 mg/kg and 5 mg/kg i.p. respectively), but in rats Na-pentobarbital (40 mg/kg i.p) were used. The common sciatic nerve was exposed unilaterally on the right side high in the thigh and ⅓-½ of the nerve trunk was carefully separated and tightly ligated using a siliconised silk suture (Ethicone 5-0 and 8.0, respectively). Then the wound was closed and the animals were allowed to survive for 8 days (Seltzer, 1990; Malmberg and Basbaum 1998; Bolcskei et al. 2005; Sandor et al. 2010). During this period, signs of spontaneous pain (holding the legs in elevated position transiently for 2-3 days) and mechanical hyperalgesia and cold allodynia developed. In order to investigated the efficacy of these drugs we examined the drop of the mechanical touch sensitivity on Day 3, however the decrease of the mechanical threshold develops fully 7 days after the surgery.
as §3, with “Hyperalgesia or allodynia (decrease of the withdrawal thresholds) was expressed as percentage by comparing the data of each individual animal to the averaged three initial control thresholds.” left out

| Compound | thermonociceptive threshold after formalin application ([1]; 1 hour, basal 44.8±1.7° C., saline treated mice 37.4±3° C.) [°C] | nocifensive behaviour (total duration of paw lickings and liftings), early phase ([1]; formalin i.pl., early phase (0-5 min), vs saline) | nocifensive behaviour (total duration of paw lickings and liftings), late phase ([1]; formalin i.pl., late phase (20-45 min), vs saline) | drop of mechanonociceptive threshold after RTX at 2 hours (RTX-induced hyperalgesia; 20 mg/kg i.p. pretreatment) [%] | drop of heat threshold after intraplantar RTX (RTX-induced hyperalgesia; 20 mg/kg i.p. pretreatment, maintained during 15 minutes, solvent group approx. 8 degree) | acute neurogenic inflammatory heat allodynia (RTX-induced hyperalgesia) | sciatic nerve ligation-induced neuropathic mechanical hyperalgesia [2] | neuropathic cold hyperalgesia (cold allodynia, paw withdrawal latency) [3] | change of the mechanonociceptive thresholds, contralateral side of the operated rats [4] | inhibitory effect on mechanical allodynia [4] | mechanical allodynia (decrease of withdrawal threshold vs initial control) after drug injection [4] [%] | change of the mechanonociceptive thresholds, sham-operated group [4] | change of mechanonociceptive threshold after RTX at 4 hours (RTX-induced hyperalgesia; 20 mg/kg i.p. pretreatment, 4 hours, solvent group 35.3±3%) [%] | sciatic nerve ligation-induced neuropathic mechanical hyperalgesia ([2]; 20 mg/kg) |
| --- | --- | --- | --- | --- | --- | --- | --- | --- | --- | --- | --- | --- | --- | --- |
| ON=CCCc1nc(-c2ccccc2)c(-c2ccccc2)o1 [SZV-1287, 3-(4,5-diphenyl-1,3-oxazol-2-yl)propanal oxime] | 37.5±4 | significantly lower | significantly lower | 22.1±7 | 1-2 °C | moderately decreased | significantly decreased | did not influence | No change | approximately 30% | 34.6±7.6 | No change | – | – |
| C=C(CNN)c1ccccc1 [SZV-1911, (2-phenyl-2-propen-1-yl)hydrazine] | – | – | – | 14.7±6 | – | moderately decreased | – | did not influence | No change | approximately 30% | 32.9±3.4 | No change | 6.5±6 | significantly diminished; also recorded: significantly decreased |
